# Laboratory results published in patent US10576102B2, “KOC1-derived peptide and vaccine including same” (ONCOTHERAPY SCIENCE, INC., priority 2014, dated 2020).
# Entries after “also recorded” stand apart in the source; their conditions may differ.
# Tests used:
# [1] = test system: peptide-pulsed C1R-A03; test: IFN-gamma ELISA of CTL line and CTL clone (HLA-A*0301); type: cell-based, human
# Protocol: CTLs were propagated in culture using methods similar to those disclosed by Riddell et al. (Walter E A et al., N Engl J Med 1995, 333(16): 1038-44; Riddell S R et al., Nat Med 1996, 2(2): 216-23). The CTLs were co-cultured in a total of 25 ml AIM-V medium containing 5% AS (AIM-V/5% AS) and 40 ng/ml anti-CD3 antibody with two types of Mitomycin C-treated human B lymphoblastoid cell lines at 5×10^6 cells/flask. One day after beginning of the culturing, 120 IU/ml IL-2 was added to the culture. On days 5, 8 and 11, a fresh AIM-V/5% AS medium containing 30 IU/ml IL-2 was added to the culture (Tanaka H et al., Br J Cancer 2001, 84(1): 94-9; Umano Y et al., Br J Cancer 2001, 84(8): 1052-7; Uchida N et al., Clin Cancer Res 2004, 10(24): 8577-86; Suda T et al., Cancer Sci 2006, 97(5): 411-9; Watanabe T et al., Cancer Sci 2005, 96(8): 498-506).
# Dilution of CTLs was carried out to make 0.3, 1 and 3 cells/well in 96 round-bottomed microtiter plates (Nalge Nunc International). The CTLs were co-cultured with two types of Mitomycin C-treated human B lymphoblastoid cell lines at 1×10^4 cells/well in a total of 150 micro-1/well AIM-V/5% AS medium with 30 ng/ml anti-CD3 antibody and 125 IU/ml IL-2. Ten days later, IL-2 was added to the medium at 50 micro-1/well to reach a final concentration of 125 IU/ml. […]
# [2] = test system: peptide-pulsed C1R-A03; test: In vitro CTL induction, IFN-gamma ELISPOT assay (HLA-A*0301); type: cell-based, human; details: CTLs induced with peptide-pulsed DCs from HLA-A*0301-positive volunteers; day 21; vs peptide-pulsed C1R-A03, compared with unpulsed control
# Protocol: C1R (C1R-A03) that stably expresses HLA-A*0301 was used as a stimulator cell. A cDNA encoding the open-reading frame of HLA-A*0301 was amplified by PCR and cloned into an expression vector. C1R cells were transfected with the expression vector, and then selected using G418 (Invitrogen) for two weeks. The G418-selected cells were seeded into wells containing G418-added culture medium in a 96-well plate, and further cultured for 30 days. The exogenous HLA-A*0301 expression in C1R cells was verified by flow cytometric analysis.
# Monocyte-derived dendritic cells (DCs) were used as the antigen-presenting cell to induce a cytotoxic T lymphocyte (CTL) response against peptides presented on human leukocyte antigens (HLAs). As described in the other sections, DCs were generated in vitro (Nakahara S et al., Cancer Res 2003, 63(14): 4112-8). Specifically, peripheral-blood mononuclear cells isolated from healthy volunteers (HLA-A*0301-positive) with the Ficoll-Paque plus solution (Pharmacia) were separated by attaching to plastic tissue culture dishes (Becton Dickinson) and concentrated as a monocyte fraction. The monocyte-concentrated population was cultured in the presence of 1000 IU/ml granulocyte macrophage colony-stimulating factor (R&D System) and 1000 IU/ml interleukin(IL)-4 (R&D System) in an AIM-V medium (Invitrogen) containing 2% heat-inactivated autologous serum (AS). After seven days of culturing, the cytokine-induced DCs were pulsed with 20 micro-g/ml each of the synthesized peptides in an AIM-V medium at 37 degrees C. for three hours in the presence of 3 micro-g/ml beta 2-microglobulin. The generated cells appeared to express on their cell surface DC-associated molecules such as CD80, CD83, CD86 and HLA class II (data not shown). Next, these peptide-pulsed DCs were inactivated by X-ray irradiation (20 Gy), and mixed in a 1:20 ratio with autologous CD8^+ T cells obtained by positive selection using the CD8 Positive Isolation Kit (Dynal). These culture products were seeded in a 48-well plate (Corning). Each well was made to contain 1.5×10^4 peptide-pulsed DCs, 3×10^5 CD8^+ T cells and 10 ng/ml IL-7 (R&D System) in 0.5 ml of the AIM-V/2% AS medium. Three days later, these culture products were added with a final concentration of 20 IU/ml IL-2 (CHIRON). On day 7 and day 14, T cells were further stimulated with peptide-pulsed autologous DCs. The DCs were prepared every time by the same method as above. […]
# [3] = test system: COS7 cells transfected with both KOC1 and HLA-A*0301; test: Specific CTL activity against target cells expressing KOC1 and HLA-A*0301; type: cell-based, African green monkey; details: listed as KOC1-A03-10-120
# Protocol: Specifically, peptide-pulsed C1R-A03 (1×10^4 cells/well) was prepared as the stimulator cell. The induced CTLs, i.e., CTL lines and CTL clones, were used as the responder cell. The IFN-gamma ELISPOT assay and IFN-gamma ELISA were performed according to the manufacturer's manual.
# A cDNA encoding the open-reading frame of a target gene or HLA-A*0301 was amplified by PCR. The PCR-amplified product was cloned into an expression vector. Either or both of the target gene-expressing vector and the HLA-A*0301-expressing vector were transfected into […], which is a cell line negative for the target gene and HLA, using Lipofectamine 2000 (Invitrogen) following the manufacturer's recommended protocol. Two days after transfection, the transfected cells were harvested using versene (Invitrogen), and used as the target cell for CTL activity assay (5×10^4 cells/well).
# The CTL clone established against KOC1-A03-10-120 (SEQ ID NO: 27) was investigated for their ability to recognize target cells expressing KOC1 and the HLA-A*0301 molecule. COS7 cells transfected with both full-length KOC1 and the HLA-A*0301 gene (a specific model of target cells expressing KOC1 and the HLA-A*0301 gene) were prepared as the target cell. COS7 cells transfected with either full-length KOC1 or HLA-A*0301 were prepared as the control.
sequence,measurement,setting,value
AVVNVTYSSK (a peptide derived from KOC1) [SEQ ID NO: 27],"IFN-gamma production of CTL clone, ELISA","[1]; CTL clone by limiting dilution, peptide-pulsed C1R-A03, listed as KOC1-A03-10-120",Potent IFN-gamma production
same,"IFN-gamma production of CTL line, ELISA","[1]; CTL line, target cells pulsed with the peptide vs not pulsed, C1R-A03",potent IFN-gamma production
same,"peptide-specific CTL activity (IFN-gamma production), ELISPOT",[2],potent IFN-gamma production
same,specific CTL activity of CTL clone against target cells expressing KOC1 and HLA-A*0301,[3]; COS7 transfected with both full-length KOC1 and HLA-A*0301,specific CTL activity; also recorded: potent CTL activities
same,specific CTL activity of CTL clone against control cells,[3]; COS7 transfected with either full-length KOC1 or HLA-A*0301,a significant specific CTL activity was not shown; also recorded: a significant specific CTL activity was not detected
